Values quoted from earlier work, collected in US20040116403A1, “Superoxide dismutase mimics for the treatment of ocular disorders and diseases” (priority 2002, published 2004).

How the values were obtained:
[1] = tested on: IL-6 and MIP-2; details: rat stroke model; administration after induction of cerebral ischemia
[2] = rat stroke model; given either before or after induction of cerebral ischemia

Compound	expression of pro-inflammatory proteins such as IL-6 and MIP-2 [1]	infarct volume [2]
CCn1cc[n+](CC)c1C1=C2C=CC3=[N+]2[Mn]24[n]5c1ccc5C(c1n(CC)cc[n+]1CC)=C1C=CC(=[N+]12)C(c1n(CC)cc[n+]1CC)=c1ccc([n]14)=C3c1n(CC)cc[n+]1CC [Compound 1]	attenuation of the increased expression of pro-inflammatory proteins	
CC[n+]1ccccc1C1=C2C=CC3=[N+]2[Mn]24[n]5c1ccc5C(c1cccc[n+]1CC)=C1C=CC(=[N+]12)C(c1cccc[n+]1CC)=c1ccc([n]14)=C3c1cccc[n+]1CC [Compound 2]		reduces infarct volume
